Test results taken from patent US5888405A, “Methods for controlling biofouling using amino methyl phosphonic acids” (Buckman Laboratories International Inc., priority 1997, dated 1999).
Values joined by “and” are separate entries in the source; they are usually repeats but may differ in a detail not shown here. Equal entries are not always repeated. Where two headings read alike, the source gives them in different places.

Columns and labels:
Format in all cases: cell-based
[1] = tested on: Bacteria of the genera Bacillus, Flavobacterium, and Pseudomonas; experiment: Bacterial adhesion to submerged slides in bioreactor, Gram Crystal Violet staining, visual biofilm score (Example 3); set-up: scale not given here; settings: 100 ppm, acetone, 3 days, pH 7, average of four replicates, control 3-4
Description: (§1) The following method effectively defines the ability of a chemical compound to inhibit bacterial adhesion, or attack the formation of existing attached microorganisms, on various types of surfaces. As an overview, bioreactors were constructed in which approximately 1 in.×3 in. slides (glass or stainless steel) were fixed to the edge of the bioreactor. The lower ends (approx. 2 in.) of the slides dipped into a bacterial growth medium (pH 7) within the bioreactor which contained a known concentration of the test chemical. Following inoculation with known bacterial species, the test solutions were stirred continuously for 3 days. Unless otherwise indicated in the results below, the medium within the bioreactor was turbid by the end of three days. […] A staining procedure was then used on the slides in order to determine the amount of bacteria attached to the surfaces of the slides.
(§2) The bioreactors comprised a 400 ml glass beaker over which a lid (cover from a standard 9 cm diameter glass petri dish) was placed. With the lid removed, slides of the material of choice were taped at one end with masking tape and suspended inside the bioreactor from the top edge of the beaker. This allows the slides to be submerged within the test medium. Typically, four slides (replicates) were uniformly spaced around the bioreactor. The score presented below are the average of the four replicates. A magnetic stirring bar was placed in the bottom of the unit, the lid positioned, and the bioreactor autoclaved. Two different types of material were used as slides, stainless steel as a metal and glass as a hydrophilic surface.
(§3) The liquid medium utilized in the bioreactors was described previously by Delaquis, et al., "Detachment Of Pseudomonas fluorescens From Biofilms On Glass Surfaces In Response To Nutrient Stress", Microbial Ecology 18:199-210, 1989. The composition of the medium was:
(§4) The medium was autoclaved and then allowed to cool. If a sediment formed in the autoclaved medium, the medium was resuspended by shaking before use.
(§5) Bacteria of the genera Bacillus, Flavobacterium, and Pseudomonas were isolated from a paper mill slime deposit and maintained in continuous culture. The test organisms were separately streaked onto plate count agar and incubated at 30° C. 24 hours. With a sterile cotton swab, portions of the colonies were removed and suspended in sterile water. The suspensions were mixed very well and were adjusted to an optical density of 0.858 (Bacillus), 0.625 (Flavobacterium), and 0.775 (Pseudomonas) at 686 nm.
(§6) Biofilm Production/Chemical Testing: To four separate bioreactors was added 200 ml of the sterile medium prepared above. Chemicals to be evaluated as biodispersants were first prepared as a stock solution (40 mg/2 ml) using either water or a 9:1 acetone:methanol mixture (ac/MeOH) as a solvent. A 1.0 ml aliquot of the stock solution was added to the bioreactor using moderate, continuous magnetic stirring. This provided an initial concentration of 100 ppm for the test compound. One bioreactor (Control) contains no test compound. Aliquots (0.5 ml) from each of the three bacterial suspensions were then introduced into each bioreactor. The bioreactors were then provided with continuous stirring for three days to allow for an increase in bacterial population and deposition of cells onto the surfaces of the slides.
After the test was completed, the slides were removed from the bioreactors and were positioned vertically to permit air drying. The degree of adhesion of bacteria to the test surface was then estimated using a staining procedure. The slides were briefly flamed in order to fix the cells to the surface, and then transferred for two minutes to a container of Gram Crystal Violet (DIFCO Laboratories, Detroit, Mich.). The slides were gently rinsed under running tap water, and then carefully blotted. The degree of bacterial adhesion was then determined by visual examination and subjective scoring of each slide. […]

[2] = tested on: Bacteria of the genera Bacillus, Flavobacterium, and Pseudomonas; experiment: Quantitative method of evaluation of bacterial adhesion (crystal violet absorbance, % IBA), Example 4; settings: for Score (% IBA), inhibition of bacterial adhesion: 100 ppm; for inhibition at 100 ppm: 168 h
Description: as §1, §2, §3, §4, §5, §6
The test method, construction of bioreactors, bacterial growth medium, preparation of bacterial inocula, and biofilm/chemical testing are the same as those in EXAMPLE 3.
After 48 h or 168 h (1 week) of incubation at 26°-28° C. the slides were removed from the bioreactors and were positioned vertically to […] using a staining procedure. The slides were briefly flamed in order to fix the cells to the surface, and then transferred for one minute to a container of Gram Crystal Violet (DIFCO Laboratories, Detroit, Mich.). […]

E. Aerogenes = experiment: Minimum inhibitory concentration, 18 hour Basal Salts test; settings: for MIC: Klebsiella aerogenes, 18 h
Description: ^1 Minimum inhibitory concentration (MIC) for each compound against
the bacteria E. Aerogenes using an 18 hour Basal Salts test at pH 6 and p

[3] = glass slides, acetone, 168 h incubation at 26-28° C., 50% or greater considered effective
[4] = stainless steel (SS) slides, acetone, 168 h incubation at 26-28° C., 50% or greater considered effective

| MIC (E. Aerogenes; pH 6, pH 6, read-out: Minimum inhibitory concentration (MIC)) [µg/mL] | Compound | Score (biofilm score, bacterial adhesion) ([1]; stainless steel (SS) slides) | Score (% IBA), inhibition of bacterial adhesion [2, 3] [% IBA] | Score (% IBA), inhibition of bacterial adhesion [2, 4] [% IBA] | Minimum inhibitory concentration (MIC) (E. Aerogenes; pH 6) | Minimum inhibitory concentration (MIC) (E. Aerogenes; pH 8) | Score (biofilm score, bacterial adhesion) ([1]; glass slides) | inhibition at 100 ppm ([2]; glass slides, acetone, 168 h incubation at 26-28° C., 50% or greater considered effective, read-out: Score (% IBA), inhibition of bacterial adhesion) [%] | inhibition at 100 ppm ([2]; stainless steel (SS) slides, acetone, 168 h incubation at 26-28° C., 50% or greater considered effective, read-out: Score (% IBA), inhibition of bacterial adhesion) [%] | inhibition at 100 ppm ([2]; read-out: Score (% IBA), inhibition of bacterial adhesion, glass slides, acetone, 168 h incubation at 26-28° C., 50% or greater considered effective) [%] | inhibition at 100 ppm ([2]; read-out: Score (% IBA), inhibition of bacterial adhesion, stainless steel (SS) slides, acetone, 168 h incubation at 26-28° C., 50% or greater considered effective) [%] | MIC (E. Aerogenes; pH 8, read-out: Minimum inhibitory concentration (MIC), pH 8) [µg/mL] |
| --- | --- | --- | --- | --- | --- | --- | --- | --- | --- | --- | --- | --- |
| – | octadecyl amino methyl phosphonic acid [f] | 2.25 and 2.70 | 81 | 39 | > 100 | > 500 | – | – | – | – | – | – |
| – | decyl amino methyl phosphonic acid | 1.25 and 2.3 | 5 | 62 | > 100 | > 500 | 2.25 | – | – | – | – | – |
| > 100 | CCCCCCCCN(CCCCCCCC)CP(=O)(O)O [g, dioctyl amino methyl phosphonic acid] | – | – | – | – | – | 2.0 | 78 | 67 | – | – | – |
| – | O=P(O)(O)CN1CCOCC1 [e] | 3 and 2.3 | – | – | – | – | 3 | – | – | 52 | 33 | > 500 |
| – | hexyl amino methyl phosphonic acid | 1.0 and 2.0 | 36 | 42 | > 100 | > 500 | 3.0 | – | – | – | – | – |
| – | dodecyl amino methyl phosphonic acid | 3 and 4 | 43 | 54 | > 100 | > 500 | – | – | – | – | – | – |
| – | butyl amino methyl phosphonic acid | – | 21 | 36 | – | > 500 | – | – | – | – | – | – |
